Measurements from ChEMBL document CHEMBL1158939, “Auranticins A and B: two new depsidones from a mangrove isolate of the fungus Preussia aurantiaca” (J Nat Prod, 1991).
Calls of active or inactive are those of the source. No cut-off for these calls is given here.

How the values were obtained:
Bacillus subtilis = experiment: Antimicrobial activity against Bacillus subtilis at 5 ug/disk; type: functional, organism-based
Staphylococcus aureus = experiment: Antimicrobial activity against Staphylococcus aureus at 50 ug/disk; type: functional, organism-based

**Q.** With `C/C=C(\C)c1cc(OC)c(C)c2c1Oc1c(CO)c(O)cc(/C(C)=C/C(=O)O)c1C(=O)O2` as the compound, how does the Activity (Bacillus subtilis) read?
**A.** Active

**Q.** And the Activity (Staphylococcus aureus)?
**A.** Active

**Q.** With `C/C=C(\C)c1cc(OC)c(C)c2c1Oc1c(C=O)c(O)cc(/C(C)=C/C(=O)O)c1C(=O)O2` as the compound, how does the Activity (Bacillus subtilis) read?
**A.** Active

**Q.** And the Activity (Staphylococcus aureus)?
**A.** Active
